Data reported in US8193203B2, “Bicyclic compounds having activity at the CXCR4 receptor” (Allergan, Inc., priority 2008, dated 2012).

Target: T1, human CXCR4 receptor (Homo sapiens, UniProt P61073)
T1 construct: expressed in transfected cells
Experiment: Measurement of intracellular Ca+2 responses (FLIPR), antagonism of the SDF-1α response
Type: cell-based
Settings: for IC50: HEK-Gqi5 cells stably expressing human CXCR4, Fluo-4 FLIPR, antagonism of SDF-1α 1.9 nM (EC65); for CXCR4 (% Inh): percent antagonism of SDF-1α 1.9 nM (EC65) response, HEK-Gqi5 human CXCR4 cells, value in brackets
Description: Measurement of Intracellular Ca^+2 Responses for CXCR4 Compounds
HEK-Gqi5 cells stably expressing the human CXCR4 receptor were utilized for these studies. The growth media for the CXCR4 receptor expressing cell line was DMEM high glucose medium supplemented with 10% fetal bovine serum (FBS), 1% antibiotic-antimycotic, 50 ug/ml hygromycin B, and 400 μg/ml geneticin. Ten thousand cells per well were plated into 384-well poly-D-lysine coated plates one day prior to use. On the day of the experiment, the cells were washed twice with Hank's Balanced Salt Solution supplemented with 20 mM hepes (HBSS/hepes buffer). The cells were then dye loaded with 2 uM Fluo-4 diluted in the HBSS/Hepes buffer and incubated at 37° C. for 40 minutes. Extracellular dye was removed by washing the cell plates four times prior to placing the plates in the FLIPR (Fluorometric Imaging Plate Reader, Molecular Devices). Ligands were diluted in HBSS/Hepes buffer and prepared in 384-well microplates. The positive control, stromal-cell derived factor-1 (SDF-1α), was diluted in HBSS/Hepes buffer with 4 mg/ml fatty acid free bovine serum albumin. Two drug additions were made by the FLIPR. The first drug addition was the test drug in concentrations ranging from 2.44 nM to 40,000 nM. After this addition, fluorescent measurements were taken. Any calcium release in response to this drug addition represents agonist activity of the compounds. The second drug addition was SDF-1α at a final concentration of 1.9 nM (EC65). Fluorescence measurements were also taken after this second drug addition and were used to determine the ability of the test compounds to antagonize the SDF-1α response. Results were expressed as EC50 and efficacy values, as well as IC50 and percent antagonism values. As controls, SDF-1α (CXCR4 agonist) and AMD3100 (CXCR4 antagonist) dose-response curves were also determined in each study.

T1 sequence (P61073 whole entry): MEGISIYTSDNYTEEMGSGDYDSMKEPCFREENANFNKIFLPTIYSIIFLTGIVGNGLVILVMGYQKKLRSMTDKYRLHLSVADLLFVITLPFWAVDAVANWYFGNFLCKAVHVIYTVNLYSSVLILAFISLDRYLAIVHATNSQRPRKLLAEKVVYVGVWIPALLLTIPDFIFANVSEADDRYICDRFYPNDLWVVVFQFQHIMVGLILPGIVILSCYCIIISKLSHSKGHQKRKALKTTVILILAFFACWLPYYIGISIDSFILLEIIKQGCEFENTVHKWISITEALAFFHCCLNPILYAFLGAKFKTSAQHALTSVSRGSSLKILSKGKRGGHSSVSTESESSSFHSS

| Compound | IC50 (values in nM) | CXCR4 (% Inh) | IC50 (values given in μM) |
| --- | --- | --- | --- |
| CCN(CC)CCNc1nc(NC2CCN(Cc3ccccc3N(C)C)CC2)c2ccccc2n1 [Compound 36, N2-(2-(Diethylamino)ethyl)-N4-(1-(2-(dimethylamino)benzyl)piperidin-4-yl)quinazoline-2,4-diamine] | 800 nM | 90% | – |
| CCN(CC)CCCNc1nc(NC2CCN(Cc3ccccc3N)CC2)c2ccccc2n1 [Compound 149, N˜4˜-[1-(2-Aminobenzyl)piperidin-4-yl]-N˜2˜-[3-(diethylamino)propyl]quinazoline-2,4-diamine] | – | 68% | > 10000 nM |
| COc1cc2nc(NCCCN(C)C)nc(NC3CCN(Cc4ccccc4N(C)C(C)C)CC3)c2cc1OC [Compound 224, N2-(3-(Dimethylamino)propyl)-N4-(1-(2-(isopropyl(methyl)amino)benzyl)piperidin-4-yl)-6,7-dimethoxyquinazoline-2,4-diamine] | 695 nM | 92% | – |
| CNCC1CN(c2nc(NC3CCN(Cc4c(OC)cccc4N(C)C)CC3)c3ccccc3n2)C1 [Compound 104, N-(1-(2-(Dimethylamino)-6-methoxybenzyl)piperidin-4-yl)-2-(3-((methylamino)methyl)azetidin-1-yl)quinazolin-4-amine] | – | 97% | 1000 nM |
| COc1cc2nc(NCCCN(C)C)nc(NCCNCc3c(OC)cccc3N(C)C)c2cc1OC [Compound 178, N˜4˜-(2-{[2-(Dimethylamino)-6-methoxybenzyl]amino}ethyl)-N˜2˜-[3-(dimethylamino)propyl]-6,7-dimethoxyquinazoline-2,4-diamine] | – | 49% | > 10000 nM |
| COc1cccc(N(C)C)c1CN1CCC(Nc2nc(N3CCC3)nc3ccccc23)CC1 [Compound 88, 2-(Azetidin-1-yl)-N-(1-(2-(dimethylamino)-6-methoxybenzyl)piperidin-4-yl)quinazolin-4-amine] | – | 94% | 1900 nM |
| COc1cc2nc(N3CCCCCC3)nc(NC3CCN(Cc4c(OC)cccc4N(C)C)CC3)c2cc1OC [Compound 52, 2-(Azepan-1-yl)-N-(1-(2-(dimethylamino)-6-methoxybenzyl)piperidin-4-yl)-6,7-dimethoxyquinazolin-4-amine] | 730 nM | 90% | – |
| CCOP(=O)(CCCNc1nc(NC2CCN(Cc3c(OC)cccc3N(C)C)CC2)c2ccccc2n1)OCC [Compound 81, Diethyl 3-(4-(1-(2-(Dimethylamino)-6-methoxybenzyl)piperidin-4-ylamino)quinazolin-2-ylamino)propylphosphonate] | – | 99% | 1600 nM |
| N˜4˜-{1-[2-(Dimethylamino)-6-methoxybenzyl]pyrrolidin-3-yl}-N˜2˜-[3-(dimethylamino)propyl]-6,7-dimethoxyquinazoline-2,4-diamine [Compound 161] | – | 92% | 1900 nM |
| COc1cccc(N(C)C)c1CN1CCC(Nc2nc(NC[C@H]3CCN(C(=O)OC(C)(C)C)C3)nc3ccccc23)CC1 [Compound 110, (R)-tert-Butyl 3-((4-(1-(2-(Dimethylamino)-6-methoxybenzyl)piperidin-4-ylamino)quinazolin-2-ylamino)methyl)pyrrolidine-1-carboxylate] | – | 81% | 2200 nM |

Further compounds by falling IC50 (values in nM), results first:

| IC50 (values in nM) | CXCR4 (% Inh) | IC50 (values given in μM) | Compound |
| --- | --- | --- | --- |
| 653 nM | 96% | – | CCN1CCC(CNc2nc(NC3CCN(Cc4c(OC)cccc4N(C)C)CC3)c3ccccc3n2)C1 (centres unmarked) [Compound 107, N4-(1-(2-(Dimethylamino)-6-methoxybenzyl)piperidin-4-yl)-N2-((1-ethylpyrrolidin-3-yl)methyl)quinazoline-2,4-diamine] |
| 617 nM | 93% | – | COc1cc2nc(NCCCN3CCCC3)nc(NC3CCN(Cc4ccccc4N(C)C)CC3)c2cc1OC [Compound 33] |
| 605 nM | 98% | – | COc1cccc(N(C)C)c1CN1CCC(Nc2nc(NCCN3CC(C)OC(C)C3)nc3ccccc23)CC1 (centres unmarked) [Compound 95, N4-(1-(2-(Dimethylamino)-6-methoxybenzyl)piperidin-4-yl)-N2-(2-(2,6-dimethylmorpholino)ethyl)quinazoline-2,4-diamine] |
| 538 nM | 97% | – | N˜4˜-{1-[2-(Dimethylamino)-6-methoxybenzyl]pyrrolidin-3-yl}-N˜2˜-[3-(dimethylamino)propyl]-6,7-dimethoxyquinazoline-2,4-diamine [Compound 165] |
| 411 nM | 94% | – | COc1cc2nc(NCCCN(C)C)nc(NC3CCN(Cc4c(OC)cccc4N(C)CCN(C)C)CC3)c2cc1OC [Compound 157, N˜4˜-[1-(2-{[2-(Dimethylamino)ethyl](methyl)amino}-6-methoxybenzyl)piperidin-4-yl]-N˜2˜-[3-(dimethylamino)propyl]-6,7-dimethoxyquinazoline-2,4-diamine] |
| 380 nM | 97% | – | COc1cccc(N(C)C)c1CN1CCC(Nc2nc(NCC3CCN(C)C3)nc3ccccc23)CC1 (centres unmarked) [Compound 121, N4-(1-(2-(Dimethylamino)-6-methoxybenzyl)piperidin-4-yl)-N2-((1-methylpyrrolidin-3-yl)methyl)quinazoline-2,4-diamine] |
| 65 nM | 97% | – | COc1cc2nc(NCCc3ncc[nH]3)nc(NC3CCN(Cc4c(OCCN(C)C)cccc4N(C)C)CC3)c2cc1OC [Compound 210, N˜4˜-(1-{2-(Dimethylamino)-6-[2-(dimethylamino)ethoxy]benzyl}piperidin-4-yl)-N˜2˜-[2-(1H-imidazol-2-yl)ethyl]-6,7-dimethoxyquinazoline-2,4-diamine] |
| 56 nM | 96% | – | COc1cc2nc(NCC3CNC3)nc(NC3CCN(Cc4c(OCCN(C)C)cccc4N(C)C)CC3)c2cc1OC [Compound 230, N2-(Azetidin-3-ylmethyl)-N4-(1-(2-(dimethylamino)-6-(2-(dimethylamino)ethoxy)benzyl)piperidin-4-yl)-6,7-dimethoxyquinazoline-2,4-diamine] |
| 49 nM | 94% | – | CCN(CC)CCCNc1nc(NC2CCN(Cc3c(OCCN(C)C)cccc3N(C)C)CC2)c2cc(OC)c(OC)cc2n1 [Compound 166, N˜2˜-[3-(Diethylamino)propyl]-N˜4˜-(1-{2-(dimethylamino)-6-[2-(dimethylamino)ethoxy]benzyl}piperidin-4-yl)-6,7-dimethoxyquinazoline-2,4-diamine] |
| 45 nM | 94% | – | CCN(CC)CCOc1cccc(N(C)C)c1CN1CCC(Nc2nc(NCCN(C)C)nc3cc(OC)c(OC)cc23)CC1 [Compound 189, N˜4˜-(1-{2-[2-(Diethylamino)ethoxy]-6-(dimethylamino)benzyl}piperidin-4-yl)-N˜2˜-[2-(dimethylamino)ethyl]-6,7-dimethoxyquinazoline-2,4-diamine] |
| 41 nM | 96% | – | COc1cc2nc(NCCN(C)C)nc(NC3CCN(Cc4c(OCCN(C)C)cccc4N(C)C)CC3)c2cc1OC [Compound 229, N4-(1-(2-(Dimethylamino)-6-(2-(dimethylamino)ethoxy)benzyl)piperidin-4-yl)-N2-(2-(dimethylamino)ethyl)-6,7-dimethoxyquinazoline-2,4-diamine] |
| 38 nM | 95% | – | COc1cc2nc(NCC(O)CN)nc(NC3CCN(Cc4c(OCCN(C)C)cccc4N(C)C)CC3)c2cc1OC (centres unmarked) [Compound 196, 1-Amino-3-({4-[(1-{2-(dimethylamino)-6-[2-(dimethylamino)ethoxy]benzyl}piperidin-4-yl)amino]-6,7-dimethoxyquinazolin-2-yl}amino)propan-2-ol] |
| 30 nM | 100% | – | COc1cc2nc(NCc3ncc[nH]3)nc(NC3CCN(Cc4c(OCCN(C)C)cccc4N(C)C)CC3)c2cc1OC [Compound 213, N˜4˜-(1-{2-(Dimethylamino)-6-[2-(dimethylamino)ethoxy]benzyl}piperidin-4-yl)-N˜2˜-(1H-imidazol-2-ylmethyl)-6,7-dimethoxyquinazoline-2,4-diamine] |
| 19 nM | 94% | – | COc1cc2nc(NCCCN(C)C)nc(NC3CCN(Cc4c(OCCN(C)C)cccc4N(C)C)CC3)c2cc1OC [Compound 76, N4-(1-(2-(Dimethylamino)-6-(2-(dimethylamino)ethoxy)benzyl)piperidin-4-yl)-N-2-(3-(dimethylamino)propyl)-6,7-dimethoxyquinazoline-2,4-diamine] |
| 16 nM | 96% | – | COc1cc2nc(NCc3c[nH]cn3)nc(NC3CCN(Cc4c(OCCN(C)C)cccc4N(C)C)CC3)c2cc1OC [Compound 206, N˜4˜-(1-{2-(Dimethylamino)-6-[2-(dimethylamino)ethoxy]benzyl}piperidin-4-yl)-N˜2˜-(1H-imidazol-4-ylmethyl)-6,7-dimethoxyquinazoline-2,4-diamine] |
